Laboratory results taken from ChEMBL document CHEMBL3603818, “Hedgehog inhibitors from Withania somnifera” (Bioorg Med Chem Lett, 2015).
Blank lines part the entries; values can stand above or below the molecule they belong to. Active and inactive are the calls of the source. The calls are words filed in the database; no cut-off is given here.

Assays:
[1] = Cytotoxicity against human PANC1 cells after 24 hrs by FMCA; format: functional, cell-based; conditions: PANC-1, 24 h
[2] = system: MCF7; assay: Cytotoxicity against human MCF7 cells after 24 hrs by FMCA; format: functional, cell-based; conditions: MCF7, 24 h
[3] = Inhibition of hedgehog/GLI1-mediated transcriptional activity in human HaCaT cells after 12 hrs by luciferase assay; format: cell-based
[4] = Cytotoxicity against mouse C3H10T1/2 cells after 24 hrs by FMCA; format: cell-based; conditions: C3H 10T1/2, 24 h
[5] = system: DU-145; assay: Cytotoxicity against human DU145 cells after 24 hrs by FMCA; format: functional, cell-based; conditions: DU-145, 24 h
[6] = system: PANC-1; assay: Inhibition of BCL-2 expression in human PANC1 cells at 1 uM after 12 hrs by Western blotting; format: functional, cell-based
[7] = system: HaCaT; assay: Inhibition of PTCH expression in human HaCaT cells expressing GLI1 at 1.5 uM after 12 hrs by Western blotting; format: functional, cell-based
[8] = target: T1, Zinc finger protein GLI1 (Homo sapiens) (UniProt P08151); assay: Inhibition of GST-GLI1 (unknown origin) interaction with DNA assessed as reduction of protein-DNA complex level at 100 uM after 20 mins by electrophoretic mobility shift assay
T1 sequence (whole entry): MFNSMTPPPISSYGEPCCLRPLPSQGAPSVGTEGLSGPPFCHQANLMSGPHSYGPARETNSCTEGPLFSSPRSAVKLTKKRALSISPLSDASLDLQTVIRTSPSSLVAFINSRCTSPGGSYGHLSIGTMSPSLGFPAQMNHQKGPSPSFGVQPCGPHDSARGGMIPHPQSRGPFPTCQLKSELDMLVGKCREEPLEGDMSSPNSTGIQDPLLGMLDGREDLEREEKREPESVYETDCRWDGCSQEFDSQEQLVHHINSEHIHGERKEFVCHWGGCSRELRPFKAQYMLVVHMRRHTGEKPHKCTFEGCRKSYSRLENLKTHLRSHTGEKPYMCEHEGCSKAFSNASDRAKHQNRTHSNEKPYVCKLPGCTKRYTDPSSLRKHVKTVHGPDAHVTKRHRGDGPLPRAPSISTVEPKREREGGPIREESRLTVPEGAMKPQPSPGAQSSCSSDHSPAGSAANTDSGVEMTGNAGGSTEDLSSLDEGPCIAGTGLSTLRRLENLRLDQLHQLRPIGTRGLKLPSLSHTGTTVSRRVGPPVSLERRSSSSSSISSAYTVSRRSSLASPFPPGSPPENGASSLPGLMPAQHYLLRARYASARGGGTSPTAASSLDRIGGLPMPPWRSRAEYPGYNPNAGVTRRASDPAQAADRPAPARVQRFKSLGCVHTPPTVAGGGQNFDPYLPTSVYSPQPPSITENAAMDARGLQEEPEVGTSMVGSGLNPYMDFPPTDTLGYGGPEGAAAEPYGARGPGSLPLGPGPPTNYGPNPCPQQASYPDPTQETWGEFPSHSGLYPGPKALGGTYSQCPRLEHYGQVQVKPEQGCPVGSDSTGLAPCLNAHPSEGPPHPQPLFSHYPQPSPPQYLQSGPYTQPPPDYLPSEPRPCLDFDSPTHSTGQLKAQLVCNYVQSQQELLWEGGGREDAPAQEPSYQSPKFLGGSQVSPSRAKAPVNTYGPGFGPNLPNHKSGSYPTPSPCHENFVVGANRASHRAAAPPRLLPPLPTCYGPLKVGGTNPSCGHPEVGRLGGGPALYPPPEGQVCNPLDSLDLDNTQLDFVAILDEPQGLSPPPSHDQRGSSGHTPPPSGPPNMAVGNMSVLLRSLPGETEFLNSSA

[9] = system: PANC-1; assay: Inhibition of PTCH expression in human PANC1 cells at 1 uM after 12 hrs by Western blotting; format: functional, cell-based
[10] = system: HaCaT; assay: Inhibition of BCL-2 expression in human HaCaT cells expressing GLI1 at 1.5 uM after 12 hrs by Western blotting; format: functional, cell-based
[11] = system: PANC-1; assay: Inhibition of PTCH expression in human PANC1 cells at 5 uM after 12 hrs by Western blotting; format: functional, cell-based
[12] = system: PANC-1; assay: Inhibition of BCL-2 expression in human PANC1 cells at 5 uM after 12 hrs by Western blotting; format: functional, cell-based

SMILES: CC1=C(CO)C(=O)O[C@@H]([C@@H](C)[C@H]2CC[C@H]3[C@@H]4C[C@H]5O[C@]56[C@@H](O)[C@@H](OS(=O)(=O)O)CC(=O)[C@]6(C)[C@H]4CC[C@]23C)C1
IC50 [1]: 14.8 µM
IC50 [2]: 17.9 µM
IC50 [3]: 2.2 µM
IC50 [4]: 21 µM
IC50 [5]: 21.7 µM

inhibition [8]: Active
SMILES: CC1=C(CO)C(=O)O[C@@H]([C@@H](C)[C@H]2CC[C@H]3[C@@H]4C[C@H]5O[C@]56[C@@H](O)C=CC(=O)[C@]6(C)[C@H]4CC[C@]23C)C1 [WITHAFERIN A]
IC50 [1]: 1.6 µM
inhibition [6]: Active
inhibition [7]: Active
IC50 [2]: 6.3 µM
IC50 [3]: 0.5 µM
IC50 [4]: 4.9 µM
inhibition [9]: Active
inhibition [10]: Active
IC50 [5]: 2.5 µM

SMILES: CC1=C(CO)C(=O)O[C@@H]([C@@H](C)[C@H]2CC[C@H]3[C@@H]4C[C@H]5O[C@]56[C@@H](O)CCC(=O)[C@]6(C)[C@H]4CC[C@]23C)C1
IC50 [1]: > 25 µM
inhibition [8]: Active
IC50 [2]: > 25 µM
IC50 [3]: 14.8 µM
IC50 [4]: > 25 µM
IC50 [5]: > 25 µM

SMILES: CO[C@H]1CC(=O)[C@]2(C)[C@H]3CC[C@]4(C)[C@@H]([C@H](C)[C@H]5CC(C)=C(CO)C(=O)O5)CC[C@H]4[C@@H]3C[C@H]3O[C@]32[C@H]1O
IC50 [1]: > 25 µM
IC50 [2]: > 25 µM
IC50 [3]: > 25 µM
IC50 [4]: > 25 µM
IC50 [5]: > 25 µM

SMILES: CC1=C(C)C(=O)O[C@@H]([C@@H](C)[C@H]2CC[C@H]3[C@@H]4C[C@H]5O[C@]56[C@@H](O)C=CC(=O)[C@]6(C)[C@H]4CC[C@]23C)C1
IC50 [1]: 1.1 µM
inhibition [7]: Active
inhibition [11]: Active
inhibition [12]: Active
IC50 [2]: 2.8 µM
IC50 [3]: 0.6 µM
IC50 [4]: 4.1 µM
inhibition [10]: Active
IC50 [5]: 1.8 µM

SMILES: CC1=C(CO)C(=O)O[C@@H]([C@@H](C)[C@H]2CC[C@H]3[C@@H]4CC=C5[C@@H](O)C=CC(=O)[C@]5(C)[C@H]4CC[C@]23C)C1
IC50 [1]: 11.9 µM
IC50 [2]: 22.6 µM
IC50 [3]: 1.8 µM
IC50 [4]: > 25 µM
IC50 [5]: 10.6 µM
